We go through 6 compounds from US20190151283A1, “NON-STEROIDAL SELECTIVE GLUCOCORTICOID RECEPTOR AGONISTIC MODULATORS (SEGRAMs) AND USES THEREOF” (ASSOCIATION POUR LA RECHERCHE À L'IGBMC (ARI), priority 2017, published 2019).

The structures appear in SMILES notation.

Common to all, as to assay type: in vivo, mouse
For series [1], the system named is B6 male mice. Briefly: Fatty liver after three-month treatment. To be noted: three months; for transcripts of fatty acid synthase (FASN) and Stearoyl-CoA desaturase 1 (SCD1) in liver: q-RT-PCR, 'but not' = no increase; for blood cholesterol and bile acids' levels: 'but not' = no clear increase; for lipid deposition in the liver: 5% Red oil staining of frozen sections. The protocol:
B6 male mice (8-week-old) were daily subjected for three months to a subcutaneous injection of either vehicle (NaCl 0.9%), Dex, CpdX, CpdX(eA), CpdX(eB), CpdX-D3, CpdX-D3(eA) or CpdX-D3(eB) (1 mg/kg body weight, diluted in vehicle). Following this treatment, blood was collected at 10 a.m. by retro-orbital puncture in lithium-heparin coated vials. The plasmatic levels of total cholesterol and bile acids were determined.
Liver samples were harvested. […] RNA transcripts were extracted from liver samples and the transcripts of fatty acid synthase (FASN) and Stearoyl-CoA desaturase 1 (SCD1) genes were analyzed by q-RT-PCR.

The next series relates to Male mice (DBA-1 strain). The experiment in a line: Collagen-induced arthritis (CIA). To be noted: for hind paw thickness at the ankle level: i.p. 1 mg/kg daily for 10 days (T0 to T10); for RNA transcripts of the pro-inflammatory genes expressed in the hind paws (IL-1β, IL-6, IL-17a, IL-17f, TNFα): q-RT-PCR, T10, 'but not' = not repressed; for hind paw thickness, difference compared to the Dex treatment: student t test, FIG. 17 legend. The method, then: Mice were treated with collagen to induce a Th17 rheumatoid arthritis-like inflammation as described by Inglis et al. (2007. Arthritis Res Ther. 9(5):R113) and Geboes et al. (2009. Arthritis Rheum. 60(2):390-5).
Male mice (DBA-1 strain) were subcutaneously-injected with 100 μg collagen per mouse on D0. The hind paw thickness at the ankle level was regularly measured with a caliper. When the ankle thickness had reached around 4 mm (T0, i.e., 30 to 50 days after the collagen injection on D0), mice were daily intraperitoneally-injected for 10 days (T0 to T10) with either vehicle (NaCl 0.9%), Dex, CpdX, CpdX(eA), CpdX(eB), CpdX-D3, CpdX-D3(eA) or CpdX-D3(eB) (1 mg/kg body weight diluted in NaCl 0.9%), and the hind paw thickness at the ankle level was daily measured with a caliper. Pictures of the hind paws were taken at days T0 and T10 (before and after the treatment with either Vehicle, Dex, CpdX, CpdX(eA), CpdX(eB), CpdX-D3, CpdX-D3(eA) or CpdX-D3(eB)), in order to assess the course of swelling.
RNA transcripts were extracted from whole hind paws of collagen-untreated and collagen-treated mice at T0 and T10. IL-1β, IL-6, IL-17a, IL-17f and TNFα transcripts were analyzed by q-RT-PCR.

Series [2] relates to B6 male mice. The experiment in a line: Bone formation after three-month treatment (micro-CT, WNT16 transcripts). To be noted: s.c. 1 mg/kg daily, three months. The protocol:
B6 male mice (8-week-old) were daily subjected for three months to either a subcutaneous injection of vehicle (NaCl 0.9%), Dex, CpdX, CpdX(eA), CpdX(eB), CpdX-D3, CpdX-D3(eA) or CpdX-D3(eB) (1 mg/kg body weight, diluted in NaCl 0.9%).
From each animal included in the experiments, one femur and the ipsilateral tibia were dissected and preserved in 70% ethanol for further bone microstructure analysis by micro-CT. The FX Quantum micro-CT scanner (Perkin Elmer) was used to perform measurements at the distal femur and midshaft tibia. All scans were performed with an isotropic voxel size of 10 μm, 160 μA tube current and 90 kV tube voltage.
Morphological 3D measurements were performed using the CTAn software (Bruker). Cortical bone parameters, which were measured in the tibia midshaft, included measures of the bone volume fraction as compared to the total volume, cortical thickness, total area, bone area and marrow area. The region of interest was selected from below the distal tibial crest and continued for 20 slices toward the proximal end of the tibia. Trabecular bone parameters were measured in the distal metaphysis of the femurs and included bone volume fraction, trabecular thickness, trabecular number and trabecular spacing. The region of interest was selected from below the distal growth plate where the epiphyseal cap structure completely disappeared and continued for 100 slices toward the proximal end of the femur.
The statistical significance as compared to vehicle treatment was calculated through one-way ANOVA test followed by Dunn's multiple comparison test, *p<0.05; **p<0.01; ***p<0.001; ****p<0.0001.

In a further series the test system is mice. The experiment in a line: House dust mite (HDM)-induced asthma-like allergic lung inflammation. To be noted: for number of neutrophils and macrophages in BAL: 0.5 mg/kg on D29-D31, BAL on D32; for total number of BAL cells, eosinophils and lymphocytes: 0.5 mg/kg on D29-D31, BAL on D32, vs control group; for eosinophils in lung, immunohistochemistry: eosinophil-specific antibodies; for eosinophils in lung, immunohistochemistry / neutrophils in lung, immunohistochemistry / expressions of IL-10 and TNFα in lung samples: data not shown; for peribronchiolar and perivascular inflammatory cell infiltration: histology of lung paraffin sections; for neutrophils in lung, immunohistochemistry: neutrophil-specific antibody; for expressions of IL-1β, IL-6, IL-4, IL-5, IL-13, Eotaxin and CCL4 (pro-inflammatory genes) in lung samples / expressions of IL-10 and TNFα in lung samples: q-RT-PCR; for expressions of IL-1β, IL-6, IL-4, IL-5, IL-13, Eotaxin and CCL4 (pro-inflammatory genes) in lung samples / HDM-induced airway hyperresponsiveness (AHR), airway resistance and elastance: D32; for HDM-induced airway hyperresponsiveness (AHR), airway resistance and elastance: response to methacholine 50 mg/mL. The method, then: Glucocorticoids have been (Pearlman et al., 1997. Ann Allergy Asthma Immunol. 78(4):356-62), and are still, widely used in asthma therapy. In order to investigate the possible CpdX anti-inflammatory activity in vivo, mice were sensitized and challenged with either ovalbumin (OVA) or house dust mite (HDM) to induce an asthma-like allergic lung inflammation.
Mice were intranasally sensitized with 1 μg HDM from DO to D4, and further intranasally sensitized with 10 μg HDM on D14 and D21. Mice were then subdivided into eight groups, and on D29, D30 and D31, each mouse was again intranasally challenged with 1 μg HDM. The first seven groups received respectively 0.5 mg/kg of body weight of Dex, CpdX, CpdX(eA), CpdX(eB), CpdX-D3, CpdX-D3(eA) or CpdX-D3(eB), while the eighth group served as a control.
On D32, the airway responsiveness was invasively determined using a computer-controlled small animal ventilator (FlexVent® system, SCIREQ Technologies). Mice were anesthetized with xylazine (15 mg/kg, i.p.), followed 15 minutes later by an i.p. injection of pentobarbital sodium (54 mg/kg). An 18-gauge metal needle was then inserted into the trachea, each mouse was connected to the FlexVent® ventilator and quasi-sinusoidally ventilated with a tidal volume of 10 mL/kg at a frequency of 150 breaths/minute and a positive end-expiratory pressure of 2 cm H2O, in order to achieve a mean lung volume close to spontaneous breathing. After baseline measurement, mice were challenged for 10 seconds with a saline aerosol and, at 4.5-minute intervals, with 50 mg/mL methacholine. Airway resistance and elastance were expressed as cmH20·s/mL and cmH2O/mL respectively.
The lung allergic inflammation was assessed by examination of the bronchoalveolar lavage (BAL) fluid from each of these HDM-challenged mice. The total BAL cells, eosinophils, neutrophils, macrophages and lymphocytes were counted. RNA transcripts were extracted from lung samples. RNA transcripts of IL-1β, IL-6, IL-4, IL-5, IL-13, Eotaxin, CCL4, IL-10 and TNFα were analyzed by q-RT-PCR. Lung tissues were harvested and histological (with H&E staining) and immunohistochemical analyses were also carried out (with eosinophil-specific and neutrophil-specific antibodies).

Turning to `COc1ccc(F)cc1C(C)(C)CC(O)(CNc1ccc2c(c1)COC2=O)C(F)(F)F` (single isomer, unassigned) [CpdX(eB), 5-[4-(5-fluoro-2-methoxyphenyl)-2-hydroxy-4-methyl-2-(trifluoromethyl)pentylamino]-isobenzofuran-1(3H)-one], in the series with B6 male mice [1], the “transcripts of fatty acid synthase (FASN) and Stearoyl-CoA desaturase 1 (SCD1) in liver” value (“transcripts of fatty acid synthase” for short) is listed as “but not”; the “blood cholesterol and bile acids' levels” value was “but not”. Besides, the “hind paw thickness at the ankle level” value in the series on Male mice (DBA-1 strain) (1 mg/kg) is recorded as “no such decrease”. Also, the “bone formation in cortical and trabecular bones” value (shortened to “bone formation”) with B6 male mice [2] is given as “did not affect”.
For `[2H]C([2H])([2H])Oc1ccc(F)cc1C(C)(C)CC(O)(CNc1ccc2c(c1)COC2=O)C(F)(F)F` (racemic) [CpdX-D3, 5-{4-[2-(methoxy-D3)-5-fluorophenyl]-2-hydroxy-4-methyl-2-(trifluoro-methyl)pentylamino}isobenzofuran-1(3H)-one], in the series with B6 male mice [1], the “lipid deposition in the liver” value is recorded as “not observed”; the “transcripts of fatty acid synthase” value is “but not”; the “blood cholesterol and bile acids' levels” value is on record as “but not”. In the series on Male mice (DBA-1 strain), the “hind paw thickness at the ankle level” value is “rapid decrease”; the “RNA transcripts of the pro-inflammatory genes expressed in the hind paws (IL-1β, IL-6, IL-17a, IL-17f, TNFα)” value (“RNA transcripts” below) is “similarly repressed”; the “hind paw thickness, difference compared to the Dex treatment” value was “not significant”. For the same compound, the “bone formation” value in the series on B6 male mice [2] is listed as “did not affect”. Also, in the series on mice, the “number of neutrophils and macrophages in BAL” value is “No significant change”; the “total number of BAL cells, eosinophils and lymphocytes” value (shortened to “total number of BAL cells”) is recorded as “significantly decreased”; the “eosinophils in lung, immunohistochemistry” value is on record as “decreased”; the “peribronchiolar and perivascular inflammatory cell infiltration” value is given as “strongly decreased”. In the series with mice, the “neutrophils in lung, immunohistochemistry” value is “no significant change”; the “expressions of IL-1β, IL-6, IL-4, IL-5, IL-13, Eotaxin and CCL4 (pro-inflammatory genes) in lung samples” value (shortened to “expressions of IL-1β”) is “significantly and similarly decreased”; the “expressions of IL-10 and TNFα in lung samples” value is “not affected”; the “HDM-induced airway hyperresponsiveness (AHR), airway resistance and elastance” value (“HDM-induced airway hyperresponsiveness” for short) is given as “similarly reduced”.
Take `COc1ccc(F)cc1C(C)(C)CC(O)(CNc1ccc2c(c1)COC2=O)C(F)(F)F` (racemic) [CpdX, 5-[4-(5-fluoro-2-methoxyphenyl)-2-hydroxy-4-methyl-2-(trifluoromethyl)pentylamino]-isobenzofuran-1(3H)-one]: in the series with B6 male mice [1], the “lipid deposition in the liver” value is given as “not observed”; the “transcripts of fatty acid synthase” value is “but not”; the “blood cholesterol and bile acids' levels” value is “but not”. In the series on Male mice (DBA-1 strain), the “hind paw thickness at the ankle level” value is “rapid decrease”; the “RNA transcripts” value is recorded as “similarly repressed”; the “hind paw thickness, difference compared to the Dex treatment” value is recorded as “not significant”. For the same compound, the “bone formation” value in the series on B6 male mice [2] was “did not affect”. Also, in the series on mice, the “number of neutrophils and macrophages in BAL” value is listed as “No significant change”; the “total number of BAL cells” value was “significantly decreased”; the “eosinophils in lung, immunohistochemistry” value was “decreased”; the “peribronchiolar and perivascular inflammatory cell infiltration” value is listed as “strongly decreased”. In the series on mice, the “neutrophils in lung, immunohistochemistry” value is “no significant change”; the “expressions of IL-1β” value is “significantly and similarly decreased”; the “expressions of IL-10 and TNFα in lung samples” value was “not affected”; the “HDM-induced airway hyperresponsiveness” value is recorded as “similarly reduced”.
In the case of `[2H]C([2H])([2H])Oc1ccc(F)cc1C(C)(C)CC(O)(CNc1ccc2c(c1)COC2=O)C(F)(F)F` (centres unmarked) [CpdX-D3(eA), 5-{4-[2-(methoxy-D3)-5-fluorophenyl]-2-hydroxy-4-methyl-2-(trifluoromethyl)pentylamino}isobenzofuran-1(3H)-one], in the series with B6 male mice [1], the “transcripts of fatty acid synthase” value is “but not”; the “blood cholesterol and bile acids' levels” value is “but not”. In addition, the “RNA transcripts” value with Male mice (DBA-1 strain) is “similarly repressed”. Moreover, in the series with B6 male mice [2], the “bone formation” value was “did not affect”. In the series on mice, the “total number of BAL cells” value is given as “efficiently decreased”; the “peribronchiolar and perivascular inflammatory cell infiltration” value is “decreased”; the “expressions of IL-1β” value was “efficiently decreased”.
Regarding `[2H]C([2H])([2H])Oc1ccc(F)cc1C(C)(C)CC(O)(CNc1ccc2c(c1)COC2=O)C(F)(F)F` (centres unmarked) [CpdX-D3(eB), 5-{4-[2-(methoxy-D3)-5-fluorophenyl]-2-hydroxy-4-methyl-2-(trifluoromethyl)pentylamino}isobenzofuran-1(3H)-one], in the series with B6 male mice [1], the “transcripts of fatty acid synthase” value is on record as “but not”; the “blood cholesterol and bile acids' levels” value is given as “but not”. Also, the “hind paw thickness at the ankle level” value in the series on Male mice (DBA-1 strain) (1 mg/kg) is given as “no such decrease”. For the same compound, the “bone formation” value with B6 male mice [2] is “did not affect”.
Turning to `COc1ccc(F)cc1C(C)(C)CC(O)(CNc1ccc2c(c1)COC2=O)C(F)(F)F` (single isomer, unassigned) [CpdX(eA), 5-[4-(5-fluoro-2-methoxyphenyl)-2-hydroxy-4-methyl-2-(trifluoromethyl)pentylamino]-isobenzofuran-1(3H)-one], in the series on B6 male mice [1], the “transcripts of fatty acid synthase” value is on record as “but not”; the “blood cholesterol and bile acids' levels” value was “but not”. The “RNA transcripts” value in the series on Male mice (DBA-1 strain) is “similarly repressed”. Moreover, the “bone formation” value with B6 male mice [2] is “did not affect”. In the series on mice, the “total number of BAL cells” value is listed as “efficiently decreased”; the “peribronchiolar and perivascular inflammatory cell infiltration” value is “decreased”; the “expressions of IL-1β” value is reported as “efficiently decreased”; the “HDM-induced airway hyperresponsiveness” value was “reduced”.
